These results are taken from patent publication US11726079B2, “Lighting systems and methods of using lighting systems for in vitro potency assay for Photofrin” (Concordia Laboratories, Inc., priority 2012, dated 2023).

In this assay the test system is A549 human lung carcinoma cells. In words: Chemotherapeutic drugs as possible positive control, 24 hour incubation with XTT endpoint. The assay is classed as cell-based. The following applies: data not shown. The protocol: The broadly active chemotherapeutics drugs SN-38 (20 μM top dose), the active metabolite of irinotecan, carboplatin (7.5 mM top dose), and paclitaxel (20 μM top dose) are tested to determine if sufficient cell killing can be achieved under the anticipated assay conditions, i.e., 24 hour incubation with XTT endpoint.

As to `CCc1c2c(nc3ccc(O)cc13)-c1cc3c(c(=O)n1C2)COC(=O)[C@]3(O)CC` [SN-38], the cell killing entry (20 μM top dose) was “None of the drugs produce sufficient cell killing”. For the compound `N.N.O=C([O-])C1(C(=O)[O-])CCC1.[Pt+2]` [carboplatin], for the setting “7.5 mM top dose”, the cell killing result is reported as “None of the drugs produce sufficient cell killing”. Take `CC(=O)O[C@H]1C(=O)[C@@]2(C)[C@H]([C@H](OC(=O)c3ccccc3)[C@]3(O)C[C@H](OC(=O)[C@H](O)[C@@H](NC(=O)c4ccccc4)c4ccccc4)C(C)=C1C3(C)C)[C@]1(OC(C)=O)CO[C@@H]1C[C@@H]2O` [paclitaxel]: under “20 μM top dose”, the cell killing entry was “None of the drugs produce sufficient cell killing”.
